{"source": "patent EP0116255A2", "about": "“Treatment of migraine with N-alkyl-piperidinyl benzoate derivatives” (MERRELL DOW FRANCE ET CIE, priority 1982, dated 1984)", "key": {"5-HT M-receptor [1]": {"target": "T1, 5-HT M-receptor (Oryctolagus cuniculus, UniProt A0A5F9C9J3)", "T1 sequence (A0A5F9C9J3 35-494)": "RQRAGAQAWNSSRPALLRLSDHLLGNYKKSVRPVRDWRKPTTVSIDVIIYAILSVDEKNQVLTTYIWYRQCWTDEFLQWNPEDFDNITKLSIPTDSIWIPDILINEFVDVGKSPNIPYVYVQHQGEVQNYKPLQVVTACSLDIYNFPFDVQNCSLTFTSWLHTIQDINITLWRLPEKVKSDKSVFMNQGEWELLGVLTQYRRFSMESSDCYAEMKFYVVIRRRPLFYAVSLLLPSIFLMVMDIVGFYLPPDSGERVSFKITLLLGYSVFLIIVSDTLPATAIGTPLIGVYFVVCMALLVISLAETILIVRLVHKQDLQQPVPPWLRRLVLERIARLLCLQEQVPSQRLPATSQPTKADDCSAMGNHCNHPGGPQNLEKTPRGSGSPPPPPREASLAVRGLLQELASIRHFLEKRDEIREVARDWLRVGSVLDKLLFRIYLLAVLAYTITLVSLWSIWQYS", "assay": "pA2 against 5-HT in the isolated rabbit heart", "conditions": "negative logarithm of molar antagonist concentration reducing effect of twice the ED50 of 5-HT to that of the ED50", "procedure": "The activity of the compounds against 5-HT can be assessed by determining their pA2 values in the isolated rabbit heart as described by J.R. Fozard et al Europ. J. Pharmacol. 59, 195-210 (1979). In the method described the molar concentration of antagonist which reduces the effects of twice the ED50 of 5-HT to that of the ED50 in the absence of antagonist is determined. The pA2 value is the negative logarithm of said molar concentrations."}, "[2]": {"system": "von Bezold-Jarisch reflex evoked by 5-HT", "assay": "Antagonism of the von Bezold-Jarisch reflex evoked by 5-HT in the anaesthetised rat", "type": "in vivo", "conditions": "iv, anaesthetised male Sprague-Dawley rat, antagonist intravenously; for ED50: dose inhibiting the response to 5-HT (2µg/kg i.v.) by 50%", "excerpt": "The activity of the compounds of Formula I against 5-HT can be assessed in vivo by measurement of the effect of the compound on the Von Bezold-Jarisch Reflex induced by 5-HT injected intravenously into the rat (see A.S. Paintal, Physiol. Rev. 53 (159-227), 1973). The transient cardiac slowing results arises from an increased efferent vagus activity arising from stimulation by 5-HT of sensory afferent fibres in and around the heart.\nAntagonism of the von Bezold-Jarisch reflex evoked by 5-HT in the anaesthetised rat was measured for N-methyl-4-piperidinyl-3',5'-dimethylbenzoate (Compound A) and N-methyl-3-piperidinyl 3',5'-dimethylbenzoate (Compound B), using the following method: • Male Sprague-Dawley rats weighing 250-300 g are anaesthetized with urethane, 1.25 g/kg injected intraperitoneally and set up for recording blood pressure and heart rate as described in Fozard J.R et al., J. Cardiovasc. Pharmacol. 2, 229-245 (1980). A submaximal dose of 5-HT (2µg/kg) is given repeatedly into the cannulated jugular vein and changes in heart rate quantified. Antagonists are given intravenously and the doses required to just inhibit the response to 5-HT (threshold dose) or to inhibit the response to 5-HT by 50% (ED50) are determined."}, "5-HT M-receptor [3]": {"target": "T1, 5-HT M-receptor", "conditions": "5-HT M-receptor antagonism; values reported in the literature (J.R. Fozard et al., Eur. J. Pharmacol.); cited from earlier work"}}, "note": "Like-named read-outs stand apart in the source and are kept apart here."}
{"molecule": "Cc1cc(C)cc(C(=O)OC2CCCN(C)C2)c1", "note": "(stereo not drawn) [Compound B, N-Methyl-3-piperidinyl-3',5'-dimethylbenzoate]", "values": [{"measurement": "pA2 5-HT", "setting": "5-HT M-receptor [1]", "value": 7.3}, {"measurement": "ED50", "setting": "[2]", "value": "0.51 ± 0.116", "unit": "mg/kg"}]}
{"molecule": "COC(=O)[C@H]1[C@@H](OC(=O)c2ccccc2)C[C@@H]2CC[C@H]1N2", "note": "[nor(-)cocaine]", "values": [{"measurement": "pA2 5-HT", "setting": "5-HT M-receptor [3]", "value": 7.7}]}
{"molecule": "tropyl benzoate", "values": [{"measurement": "pA2 5-HT", "setting": "5-HT M-receptor [3]", "value": 7.2}]}
{"molecule": "CCN(CC)CCNC(=O)c1cc(Cl)c(N)cc1OC", "note": "[metoclopramide]", "values": [{"measurement": "ED50", "setting": "[2]", "value": "0.408 ± 0.0809", "unit": "mg/kg"}, {"measurement": "minimal effective dose", "setting": "[2]; dose required to just inhibit the response to 5-HT (2µg/kg i.v.), read-out: THRESHOLD DOSE", "value": "0.233 ± 0.0663", "unit": "mg/kg"}, {"measurement": "pA2 5-HT", "setting": "5-HT M-receptor [3]", "value": 7.2}]}
{"molecule": "Cc1cc(C)cc(C(=O)OC2CCN(C)CC2)c1", "note": "[Compound A, N-Methyl-4-piperidinyl-3',5'-dimethylbenzoate]", "values": [{"measurement": "pA2 5-HT", "setting": "5-HT M-receptor [1]", "value": 8.1}, {"measurement": "ED50", "setting": "[2]", "value": "0.136 ± 0.022", "unit": "mg/kg"}]}
